Results on 14 compounds are retold here after article PMC7112044 (Bioorganic Chemistry, 2008).

Read-outs that look alike come from different tables or passages of the source. Bounds are passed on as bounds.

The term inhibition denotes the drop in the measured response relative to a control, in per cent.

One assay has as its target SARS 3CL^pro (Severe acute respiratory syndrome coronavirus, UniProt P0C6X7). The assay can be described thus: biochemical. The format is biochemical, SARS-CoV.
In a further assay the target is 3CL^pro (Severe acute respiratory syndrome coronavirus, UniProt P0C6X7). Type of assay: binding, SARS-CoV.
Setting [1] is: pH 7, read-out: Inhibition (100 μM).

Consider `O=C(c1ccco1)C(F)(F)c1cccc(Cl)c1` [Compound 13b, 2-(3-Chlorophenyl)-2,2-difluoro-1-(furan-2-yl)ethanone], for which the inhibition at 100 µM at SARS 3CL^pro (setting [1]) was determined as 13%. As for `O=C(Cc1cncc(Br)c1)c1ccc(-c2ccc(Cl)cc2)o1` [Compound 11d, 2-(5-Bromopyridin-3-yl)-1-(5-(4-chlorophenyl)furan-2-yl)ethanone], the “change of inhibitory activity after 2 h preincubation with 3CL^pro” value (shortened to “change of inhibitory activity”) on SARS 3CL^pro is “no improved inhibitory activity”. Also, the “mass change in the major mass peak of 3CL^pro” value (“mass change” for short) at 3CL^pro was “no mass change”. `O=C(Cc1cncc(Cl)c1)c1ccco1` [Compound 11a, 2-(5-Chloropyridin-3-yl)-1-(furan-2-yl)ethanone]: the inhibition at 100 µM on SARS 3CL^pro (read-out: Inhibition (100 μM)) is less than 10%. As to `O=C(c1ccco1)C(F)(F)c1cncc(Cl)c1` [Compound 13a, 2-(5-Chloropyridin-3-yl)-2,2-difluoro-1-(furan-2-yl)ethanone], the inhibition at 100 µM at SARS 3CL^pro (setting [1]) was 27%. With `O=C(Cc1cncc(Br)c1)c1ccco1` [Compound 11c, 2-(5-Bromopyridin-3-yl)-1-(furan-2-yl)ethanone], the inhibition at 100 µM on SARS 3CL^pro (read-out: Inhibition (100 μM)) was less than 10%. Turning to `O=C(c1ccco1)C(F)c1cccc(Cl)c1` (centres unmarked) [Compound 12b, 2-(3-Chlorophenyl)-2-fluoro-1-(furan-2-yl)ethanone], at SARS 3CL^pro (setting [1]), the inhibition at 100 µM worked out at 15%. Consider `O=C(Cc1cccc(Cl)c1)c1ccco1` [Compound 11b, 2-(3-Chlorophenyl)-1-(furan-2-yl)ethanone], for which, on SARS 3CL^pro (read-out: Inhibition (100 μM)), the inhibition at 100 µM was less than 10%. For the compound `O=C(c1ccco1)C(F)c1cncc(Cl)c1` (centres unmarked) [Compound 12a, 2-(5-Chloropyridin-3-yl)-2-fluoro-1-(furan-2-yl)ethanone], the inhibition at 100 µM on SARS 3CL^pro (setting [1]) came to 14%.

For the compound `O=C(Cc1cncc(Br)c1)c1cc(-c2ccc(Cl)cc2)on1` [Compound 28, 2-(5-Bromopyridin-3-yl)-1-(5-(4-chlorophenyl)isoxazol-3-yl)ethanone], the inhibition at 100 µM at SARS 3CL^pro (setting [1]) came to 35%.

In the case of `O=C(c1ccc(-c2ccc(Cl)cc2)o1)C(F)(F)c1cncc(Br)c1` [Compound 13d, 2-(5-Bromopyridin-3-yl)-1-(5-(4-chlorophenyl)furan-2-yl)-2,2-difluoroethanone], at SARS 3CL^pro, the “change of inhibitory activity” value was “no improved inhibitory activity”. Also, on 3CL^pro, the “mass change” value was “no mass change”. Consider “2-(5-Bromopyridin-3-yl)-2,2-difluoro-1-(furan-2- yl)ethanone [Compound 12c]”, for which the “Inhibition (100 μM)” value at SARS 3CL^pro (pH 7) came to 21%.

As for `O=C(c1cccs1)C(F)c1cccnc1` (centres unmarked) [Compound 6, 2-Fluoro-2-(pyridin-3-yl)-1-(thiophen-2-yl)ethanone], the “change of inhibition after 2 h preincubation with 3CL^pro” value at SARS 3CL^pro is given as “no improved inhibition”. Moreover, at SARS 3CL^pro (setting [1]), the inhibition at 100 µM worked out at 10%.

As for `O=C(c1ccc(-c2ccc(Cl)cc2)o1)C(F)c1cncc(Br)c1` (centres unmarked) [Compound 12d, 2-(5-Bromopyridin-3-yl)-1-(5-(4-chlorophenyl)furan-2-yl)-2-fluoroethanone], the “change of inhibitory activity” value at SARS 3CL^pro is listed as “no improved inhibitory activity”. Further, the “mass change” value on 3CL^pro was “no mass change”. Consider `O=C(c1cccs1)C(F)(F)c1cccnc1` [Compound 7, 2,2-difluoro-2-(pyridin-3-yl)-1-(thiophen-2-yl)ethanone], for which, at SARS 3CL^pro, the “change of inhibition after 2 h preincubation with 3CL^pro” value is listed as “no improved inhibition” and the “potency of inhibition relative to pyridinyl ester 1” value was 2- to 3 fold. In addition, the inhibition at 100 µM on SARS 3CL^pro (setting [1]) amounted to 38%.
